The test system of data set [1] is biosynthesis of triglycerides in cell strain HepG2 derived from human hepatoma. Nature of the data set: Inhibitory activity against biosynthesis of triglycerides (14C-acetic acid incorporation). It counts as cell-based. As to conditions: HepG2 cells, test compound at final concentration of 3 μM. The procedure:
Inhibitory activity against biosynthesis of triglycerides The inhibitory activity of the compounds according to the present invention against the biosynthesis of triglycerides were studied using cell strain HepG2 derived from human hepatoma.
The test was carried out by the method of Nagata et al. (Biochem. Pharmacol., 40, 843 (1990)) and the method of Furukawa et al. (J. Biol. Chem., 267, 22630 (1992)) which had been partly modified. Specifically, HepG2 cells were cultivated in a Dulbecco's modified Eagle's medium (DMEM), containing 10% fetal calf serum (FCS), 100 units/ml penicillin, and 100 μg/ml streptomycin, placed in 96-well plates. Thereafter, the medium was replaced with DMEM containing 1% bovine serum albumin, and the test compound was simultaneously added to a final concentration of 3 μM or was not added, followed by cultivation. Three hr after the replacement of the medium, ^14C-acetic acid was added to a final concentration of 1 mM, followed by cultivation for additional 4 hr. The cells were washed with a phosphate buffer (pH 7.5) containing 150 mM sodium chloride. Thereafter, lipid within the cells was extracted with n-butanol. After the extraction, the extract was evaporated to dryness under a nitrogen gas stream. The residue was dissolved in a small amount of chloroform. The solution was developed in thin-layer chromatography (developing solvent petroleum ether:diethyl ether:acetic acid=90:15:3), and a ^14C-triglyceride fraction was isolated. The amount of […] produced was then quantitatively determined with a liquid scintillation counter (Beckman, LS-6500).
The inhibition (%) of the biosynthesis of triglycerides was calculated by the following equation:
Inhibition (%) of biosynthesis of triglycerides={1-(amount of ^14C-triglycerides produced in the presence of drug)/(amount of ^14C-triglycerides produced in the absence of drug)}×100.

Data set [2] relates to secretion of apolipoprotein B in cell strain HepG2 derived from hepatoma. Nature of the data set: Inhibitory activity against secretion of apolipoprotein B (sandwich ELISA). It is filed as cell-based. Particulars: Homo sapiens; HepG2 cells, test compound at final concentration of 3 μM. On the procedure:
Inhibitory activity against secretion of apolipoprotein B
The inhibitory activity of the compounds according to the present invention against the secretion of apolipoprotein B was studied using cell strain HepG2 derived from hepatoma.
The test was carried out by the method of Nagata et al. (Biochem. Pharmacol., 40, 843 (1990)) and the method of Furukawa et al. (J. Biol. Chem., 267, 22630 (1992)) which had been partly modified. Specifically, HepG2 cells were cultivated in a Dulbecco's modified Eagle's medium (DMEM), containing 10% fetal calf serum (FCS), 100 units/ml penicillin, and 100 μg/ml streptomycin, placed in 96-well plates. Thereafter, the medium was replaced with DMEM containing 1% bovine serum albumin, and the test compound was simultaneously added to a final concentration of 3 μM or not added, followed by cultivation. Three hr after the replacement of the medium, acetic acid was added to a final concentration of 1 mM, followed by cultivation for additional 4 hr. The amount of apolipoprotein B secreted in the supernatant of the culture thus obtained was quantitatively determined by the sandwich ELISA method. In this case, goat anti-human apolipoprotein B polyclonal antibody (CHEMICON) was used as a primary antibody, and mouse anti-human apolipoprotein B monoclonal antibody peroxidase conjugate (BIOSYS) was used as a secondary antibody.
The inhibition (%) against the secretion of apolipoprotein B was calculated by the following equation:
Inhibition (%) of secretion of apolipoprotein B={1-(amount of apolipoprotein B secreted in the presence of drug)/(amount of apolipoprotein B secreted in the absence of drug)}×100

Data set [3] relates to ddY mice (male). Nature of the data set: Acute toxicity test in mice. It is filed as in vivo. Particulars: orally administered 200 mg/kg, observed for 8 days. The procedure: (§1) An acute toxicity test was carried out using mice and rats by a conventional method.
Data set [4] has as its system wistar rats (male). Nature of the data set: Acute toxicity test in rats. As to conditions: orally administered 200 mg/kg, observed for 8 days. It is filed as in vivo. On the procedure:
as §1

The results in this text go back to US6417362B1, “Nitrogenous heterocyclic compounds and hyperlipemia remedy containing the same” (Meiji Seika Kaisha, Ltd., priority 1997, dated 2002).

Molecules are shown by their SMILES.

With `CC(C)=CCC/C(C)=C/CC/C(C)=C/CN1CCN(c2ccc3c(c2)C(=O)N(C2CCCCC2)C3)CC1` [Example 5, 2-Cyclohexyl-2,3-dihydro-6-[4-(trans,trans-farnesyl)piperazin-1-yl]-1H-isoindol-1-one], the inhibition at 3 µM in data set [1] stood at 90%; in data set [2], 56%.

As to `O=C1c2cc(N3CCN(CCC(c4ccccc4)c4ccccc4)CC3)ccc2CN1C1CCCCC1` [Example 8, 2-Cyclohexyl-2,3-dihydro-6-[4-(3,3-diphenyl-1-propyl)piperazin-1-yl]-1H-isoindol-1-one], the inhibition at 3 µM in data set [1] was found to be 79%; in data set [2] it was 70%. Further, the “change in general states, such as reduction in body weight” value is “any change in general states, such as a reduction in body weight, did not occur” in data set [3] and “any change in general states, such as a reduction in body weight, did not occur” in data set [4]. Also, the “survival in acute toxicity test” value in data set [3] and in data set [4] was “survived” in each case.

With `CC(C)(C)OC(=O)N1CCN(c2ccc3c(c2)C(=O)N(C2CCCCC2)C3)CC1` [Example 30, 6-[4-(t-Butoxycarbonyl)piperazin-1-yl]-2-cyclo-hexyl-2,3-dihydro-1H-isoindol-1-one], the results for the inhibition at 3 µM in data set [1] and in data set [2] were 89% and 68%, respectively.

Turning to `O=C1c2cc(N3CCN(CCC(c4ccccc4)c4ccccc4)CC3)ccc2CCN1C1CCCCC1` [Example 68, 2-Cyclohexyl-7-[4-(3,3-diphenyl-1-propyl)-piperazin-1-yl]-3,4-dihydro-2H-isoquinolin-1-one], the inhibition at 3 µM in data set [1] amounted to 64%; in data set [2] it was 61%.
